Laboratory results taken from patent US8552018B2, “Substituted tricyclic compounds as protein kinase inhibitors” (Arizona Board of Regents on behalf of the University of …, priority 2003, dated 2013).

Legend:
[1] = test system: mutant forms of c-Kit; experiment: Activity against mutant c-Kit (stated); assay type: biochemical
[2] = test system: LNCaP prostate carcinoma cells; experiment: Apoptosis assays (morphology, PARP cleavage immunoblot); assay type: cell-based; conditions: 48 hours
Experimental: Induction of apoptosis by MP-470 (Compound III-1-3) was further evaluated in LNCaP prostate carcinoma cells using three different assays. First, cells were treated with MP-470 at a variety of concentrations, with or without addition of Tarceva® (erlotinib) for 48 hours. Cells were then examined for the morphological characteristics of apoptosis (membrane blebbing, nuclear fragmentation, etc.) and scored according to a binary scale (apoptotic versus non-apoptotic).
As a more quantifiable means of determining apoptosis induction, cells were also lysed and total protein was used in an immunoblot assay for poly-[ADP ribose] polymerase (PARP) cleavage, a hallmark of apoptosis.

[3] = test system: SF-767 glioblastoma multiformes cells; experiment: MTS cell death assay; assay type: cell-based
Experimental: To evaluate the ability of MP470 to enhance clinical therapy we used MP470 in combination with ionizing radiation on culture cancer cells. SF-767 glioblastoma multiformes cells were treated with 1 μM MP470, 800c Gy IR, or a combination of both.

[4] = test system: LNCaP prostate cells; experiment: MTT assay; assay type: cell-based; conditions: Homo sapiens, read-out: IC50 (cell survival reduced to 50% of vehicle-treated controls), FIG. 30
Experimental: An MTT assay was performed to determine the number of viable cells in each well for each concentration of compound, and also for a set of vehicle controls (DMSO).

[5] = test system: LNCaP tumors; experiment: Xenograft study; assay type: in vivo, mice; conditions: MP-470/Tarceva® in combination, 18 days treatment, FIG. 35
Experimental: A xenograft study was carried out in order to evaluate the combined effects of MP-470 (Compound III-1-3) and Tarceva® in vivo. LNCaP cells were injected into immunocompromised mice and allowed to develop into measurable tumors, at which point treatment was initiated. Mice were allocated to one of four groups and treated with vehicle, MP-470 (referred to in FIG. 35 as HPK56), Tarceva®, or MP-470/Tarceva® in combination, as indicated. […] The results of these studies are shown in graphical form in FIG. 35.

[6] = test system: pancreatic cancer cell lines MIAPaCa-2 and PANC-1; experiment: Cancer cell cytotoxicity assay, range over both pancreatic lines; assay type: cell-based; conditions: potency order
Experimental: To validate the hypothesis that the designed c-kit/PDGFR tyrosine kinase inhibitors mediate GIST882 cell killing and PDGFR-mediated cell killing of pancreatic cancer cell lines (CFPAC-1, PANC-1 and MIA PaCa-2), an in vitro cytotoxicity assay was performed. The GIST882 cell line used in this study has a c-kit gain-of-function mutation (K642E). […] First the cells were cultured. GIST882 cells were provided by Dr. Jonathan A. Fletcher (Dana-Farber Cancer Institute, Boston, Mass.). PANC-1 and MIAPaCa-2 cells were provided by Dr. Daniel Von Hoff (Arizona Cancer Center, Tucson, Ariz.). […] All the cell lines were incubated in a humidified incubator at 37° C. with 5% CO2 atmosphere.
After incubation for 4 days at 37° C. in a humidified incubator, the cells were fixed with 10% Trichloroacetic acid solution (Catalog No. 490-10, Sigma). Subsequently, they were labeled with 0.04% Sulforhodamine B (S9012, Sigma) in 1% acetic acid. […] The absorbance of each well was read on a plate reader (Wallac Vector^2, PerkinElmer) at the wavelength of 570 nm. Data were expressed as the percentage of survival of control calculated from the absorbance corrected for background absorbance. The surviving percent of cells was determined by dividing the mean absorbance values of the […] by the mean absorbance values of the control and multiplying by 100.

[7] = test system: c-Met autophosphorylation in NIH 3T3 cells; experiment: Immunoblot for phospho-Met; assay type: cell-based
Experimental: MP-470 (Compound III-1-3) has inhibitory effects on a number of receptor tyrosine kinases. In order to evaluate these effects at the cellular level, immunoblot analysis was performed on lysates from cells treated with MP470, with or without the addition of the EGFR inhibitor Tarceva®. Lysates were assayed for general tyrosine kinase activity, as well as the specific phosphorylation of c-Met and Akt. Briefly, NIH 3T3 cells were pretreated with drugs as indicated for 4 hours, then treated with pervanadate for a further 30 minutes. Immunoblot detection was carried out with antibodies for phosphotyrosine, phospho-Met and phospho-Akt (S473), as well as total c-Met and Akt. Beta-actin was used as a loading control.

[8] = test system: LNCaP prostate carcinoma cells; experiment: Flow cytometric analysis (sub-G1 peak); assay type: cell-based; conditions: 48 hours, MP-470 alone
Experimental: (§1) In addition, A549 non-small cell lung cancer (NSCLC) cells and LNCaP prostate carcinoma cells were treated with MP-470 in the presence or absence of Tarceva® for 48 hours and subjected to flow cytometric analysis. Nocodazole was also included to induce a G2/M arrest, in an effort to determine if these compounds could overcome such a block. Left-hand columns for each cell type represent cells with no additional treatment, while right-hand columns represent cells pretreated overnight with nocodazole (0.3 ug/mL) to induce G2/M arrest.

[9] = test system: A549 non-small cell lung cancer (NSCLC) cells; experiment: Flow cytometric analysis (sub-G1 peak); assay type: cell-based; conditions: A549, 48 hours, MP-470 alone
Experimental: as §1

[10] = test system: MiaPaCa-2 pancreatic cancer cells; experiment: Apoptosis assay (Annexin V or TUNEL); assay type: cell-based
Experimental: (§2) Induction of apoptosis in cancer cells is a common mechanism of action for anti-cancer agents. To determine the role of MP470 in apoptosis, tumor cells were incubated with either compound and analyzed for apoptosis using Annexin V or TUNEL assays. […] In MiaPaCa-2 cells, MP470 at […] induced 81.4% apoptosis, while at 1 μM it induced 71% apoptosis. In Panc1 cells, MP470 at 10 μM induced over a 3-fold increase in apoptotic cells compared with non-treated cells.

[11] = test system: Panc-1 pancreatic cancer cells; experiment: Apoptosis assay (Annexin V or TUNEL); assay type: cell-based; conditions: Panc1, 10 μM
Experimental: as §2

[12] = molecular target: c-Kit (Homo sapiens, UniProt P10721); experiment: c-kit kinase inhibitory activity (stated in Example 32); assay type: biochemical
Sequence of c-Kit (P10721 26-976): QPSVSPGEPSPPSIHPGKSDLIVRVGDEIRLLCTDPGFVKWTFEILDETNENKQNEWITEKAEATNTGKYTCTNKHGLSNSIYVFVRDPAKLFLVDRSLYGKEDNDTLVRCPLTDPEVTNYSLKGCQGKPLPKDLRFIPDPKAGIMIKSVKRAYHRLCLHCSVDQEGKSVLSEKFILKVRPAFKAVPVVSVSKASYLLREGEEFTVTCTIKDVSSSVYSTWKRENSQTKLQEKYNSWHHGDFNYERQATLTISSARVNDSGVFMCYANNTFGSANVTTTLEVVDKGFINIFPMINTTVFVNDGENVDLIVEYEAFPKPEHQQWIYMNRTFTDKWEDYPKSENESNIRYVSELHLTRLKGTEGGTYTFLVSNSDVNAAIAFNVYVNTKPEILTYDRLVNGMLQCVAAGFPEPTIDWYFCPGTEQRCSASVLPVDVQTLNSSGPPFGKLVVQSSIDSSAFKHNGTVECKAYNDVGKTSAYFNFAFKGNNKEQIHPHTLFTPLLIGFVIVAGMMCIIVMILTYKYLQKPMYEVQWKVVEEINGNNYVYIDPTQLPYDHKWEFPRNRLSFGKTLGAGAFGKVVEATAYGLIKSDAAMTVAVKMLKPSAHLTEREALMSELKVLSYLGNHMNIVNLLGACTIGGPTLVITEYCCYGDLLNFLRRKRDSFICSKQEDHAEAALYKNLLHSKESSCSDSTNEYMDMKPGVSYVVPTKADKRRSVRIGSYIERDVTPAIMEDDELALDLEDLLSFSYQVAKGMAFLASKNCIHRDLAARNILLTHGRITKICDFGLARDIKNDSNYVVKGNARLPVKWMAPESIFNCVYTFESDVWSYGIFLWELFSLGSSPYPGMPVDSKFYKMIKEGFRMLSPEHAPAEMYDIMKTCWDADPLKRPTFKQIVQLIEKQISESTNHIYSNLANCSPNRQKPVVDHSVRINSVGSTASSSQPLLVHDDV

S=C(NCc1ccc2c(c1)OCO2)N1CCN(c2ncnc3c2oc2ccccc23)CC1 [HPK56, 4-Benzo[4,5]furo[3,2-d]pyrimidin-4-yl-piperazine-1-carbothioic acid (benzo[1,3]dioxol-5-ylmethyl)-amide]
activity against mutant forms of c-Kit (in words) [1]: low nanomolar
apoptosis induction ([2]; MP-470 alone): dose-dependent increase in apoptosis
apoptosis induction ([2]; MP-470 in the presence of erlotinib): enhanced
cell death (MTS) ([3]; SF-767, 1 μM MP470 alone): induced cell death
increase of cell death over either agent alone ([3]; SF-767, 1 μM MP470 in combination with 800c Gy IR): more than 2 fold
IC50 [4]: ~5 µM
tumor growth [5]: slowed tumor growth to nearly zero
IC50 [6]: 2.1 to 3 µM
activating autophosphorylation of c-Met ([7]; NIH 3T3, 4 hours, agent alone): reduced
activating autophosphorylation of c-Met ([7]; NIH 3T3, MP-470 in combination with Tarceva®): reduced
apoptosis (sub-G1 peak) [8]: induced apoptosis
apoptosis (sub-G1 peak) [9]: induced apoptosis
apoptosis ([10]; MiaPaCa-2, 1 μM): 71%
apoptosis ([10]; MiaPaCa-2, 100 μM): 81.4%
increase in apoptotic cells compared with non-treated cells [11]: > 3 fold

COc1cc2[nH]c3ncnc(N4CCN(C(=S)Nc5ccc(S(=O)(=O)Nc6ncccn6)cc5)CC4)c3c2cc1OC [HPK62, 4-(6,7-Dimethoxy-9H-1,3,9-triaza-fluoren-4-yl)-piperazine-1-carbothioic acid [4-(pyrimidin-2-ylsulfamoyl)-phenyl]-amide]
inhibitory activity against c-kit kinase (in words) [12]: low μM
